Where a name gives a salt, the structure may show the parent alone.
How the values were obtained:
[1] = test system: progressing desmoid tumors/aggressive fibromatosis (DT/AF); assay type: in vivo
Description: A Phase 3, double-blind, placebo-controlled study is being conducted to determine the efficacy and safety of nirogacestat dihydrobromide in participants with progressing desmoid tumors. A Phase 1 solid tumor study provided preliminary efficacy (Messersmith, W., et al., “A Phase I, dose-finding study in patients with advanced solid malignancies of the oral γ-secretase inhibitor PF-03084014,” Clin. Cancer Res., 21:60-7 (2015)), including long-term durable responses and safety of nirogacestat in desmoid participants (Villalobos, V. M., et al., “Long-Term Follow-Up of Desmoid Fibromatosis Treated with PF-03084014, an Oral Gamma Secretase Inhibitor, Ann. Surg. Oncol., 25:768-75 (2018)). These encouraging results lead to a Phase 2 study in participants with progressing desmoid tumors (Kummar, S., et al., “Clinical Activity of the γ-Secretase Inhibitor PF-03084014 in Adults with Desmoid Tumors (Aggressive Fibromatosis), J. Clin. Oncol., 35:1561-69 (2017)). […] Importantly, participants in the responder group had failed previous systemic therapies (imatinib or sorafenib) indicating a need for alterative therapeutic options for this patient population.
Overall Design: The Phase 3 study will be a multi-center, randomized, double-blind, placebo-controlled, event-driven to compare the efficacy, safety, and tolerability of nirogacestat and placebo in adult participants with progressing DT/AF. This study will consist of 2 phases, a double-blind and an optional open-label extension (OLE) phase.
Following disease progression (confirmed by central review using RECIST v1.1), or completion of the double-blind phase (once the required number of events have been observed and the primary PFS analysis has been completed), participants' treatment assignment will be unblinded, and if eligible, participants will have the option to enroll in the optional OLE phase.
• 1. Participant has DT/AF that has progressed by ≥20% as measured by RECIST v1.1 within the 12-month period prior to first dose of study treatment. • 2. Participant has: • a. Newly diagnosed, measurable progressing DT/AF that is not amenable to surgical resection or radiation therapy; • OR • b. Recurrent, progressing DT/AF following CR to initial therapy; • OR • c. Preexisting DT/AF and has previously received therapy and the residual tumor has progressed. • 3. Participant agrees to provide archival or new tumor tissue for confirmation of disease. • 4. If participant was previously treated with an investigational therapy for treatment of DT/AF, participant must have completed prior therapy at least 28 days prior to signing informed consent. All toxicities from prior therapy must resolve to ≤Grade 1 or baseline. • 5. Participants who are receiving nonsteroidal anti-inflammatory drugs (NSAIDs) as treatment for conditions other than DT/AF must be receiving them prior to the observed progression (inclusion criteria 1) for: • a. Chronic scheduled daily use (defined as stable for 28 days prior to signing informed consent); or • b. Occasional use (defined as ≤3 days per week) for the treatment of pain or as an anti-inflammatory in licensed conditions such as headache, arthritis, etc. • c. Participant has an Eastern Cooperative Oncology Group (ECOG) performance status ≤2 at screening. • 6. Participant has adequate organ and bone marrow function as defined by the following Screening laboratory values: • a. Absolute neutrophil count ≥1500/μL; • b. Platelets ≥100×10^3/μL; • c. Hemoglobin ≥9 g/dL; • d. Total bilirubin ≤1.5× upper limit of normal (ULN) (isolated bilirubin >1.5×ULN is acceptable if bilirubin is fractionated and direct bilirubin <35%); • e. Aspartate aminotransferase (AST) (serum glutamic oxaloacetic transaminase)/alanine aminotransferase (ALT) (serum glutamic pyruvate transaminase)≤2×ULN; and • f. […] Participant can swallow tablets and has no gastrointestinal conditions affecting absorption. […]

[2] = test system: progressing desmoid tumors; details: Phase 2, participants with progressing desmoid tumors; cited from earlier work
[3] = Pharmacokinetic parameters for single oral doses; assay type: in vivo, human
[4] = intent-to-treat population, n = 70
[5] = Min, COHORT 1: 150 mg (3 × 50 mg), Period 1

Compound | most frequent adverse reactions requiring a dose reduction or interruption ([1]; in vivo) | Best overall response, n (%): Complete response [1, 4] | Best overall response, n (%): Not evaluable [1, 4] | Best overall response, n (%): Partial response [1, 4] | Best overall response, n (%): Progressive disease [1, 4] | Best overall response, n (%): Stable disease [1, 4] | Disease control rate, n (%) [1, 4] | Time to response, months, median (range) [1, 4] | progression-free survival (PFS), hazard ratio (HR) ([1]; nirogacestat over placebo, 150 mg twice daily, p<0.001) | progression while on therapy [2] | CL/F ([3]; Max, COHORT 1: 150 mg (1 × 150 mg), Period 2) [L/h] | Half-life ([3]; Max, COHORT 1: 150 mg (3 × 50 mg), Period 1) [h] | CL/F ([3]; Max, COHORT 3: 50 mg, Period 1) [L/h] | CL/F ([3]; Median, COHORT 1: 150 mg (3 × 50 mg), Period 1) [L/h] | AUCinf [3, 5] [ng·h/mL] | AUClast [3, 5] [ng·h/mL]
CCC[C@H](N[C@H]1CCc2cc(F)cc(F)c2C1)C(=O)Nc1cn(C(C)(C)CNCC(C)(C)C)cn1 (single isomer, unassigned) [nirogacestat] | diarrhea, rash maculo-papular, hypophosphatemia, stomatitis, folliculitis, and fatigue | 5 (7) n (%) | 4 (6) n (%) | 24 (34) n (%) | 1 (1) n (%) | 35 (50) n (%) | 64 (91) n (%) | 5.6 (2.6, 19.4) months | 0.29 | no participants progressing while on therapy | – | – | – | – | – | –
CCC[C@H](N[C@H]1CCc2cc(F)cc(F)c2C1)C(=O)Nc1cn(C(C)(C)CNCC(C)(C)C)cn1 [nirogacestat dihydrobromide] | – | – | – | – | – | – | – | – | – | – | 82.0 | 32.0 | 660 | 57.0 | 2160 | 2080

From patent US12138246B2, “Treatments with nirogacestat” (SpringWorks Therapeutics, Inc., priority 2022, dated 2024)
